Patent publication US11332438B2, “Creatine prodrugs, compositions and methods of use thereof” (Ultragenyx Pharmaceutical Inc., priority 2017, dated 2022)

What was measured:
[1] = test system: Phenocell CrT deficient neurons (iPSC-derived human neurons); assay: Creatine prodrug uptake and d3-creatine release in Phenocell CrT deficient neurons (Table 4B); type: cell-based; conditions: 2 hours
Method: Human neurons were obtained by differentiation of iPSC-derived neural stem cells for 14 days. The iPSCs were obtained from Phenocell Corporation. Neurons were cultured and differentiated to Day 10 and then frozen in liquid nitrogen. Neurons were thawed and replated at 1×10^6 per well of viable cells on poly-ornithine/laminin coated plates in 2 ml medium per well. Differentiation in complete Neurol medium with 2 ng/ml FGF2 was carried out for 4 additional days with a complete medium change (90% of medium) on Day 12. Activin A (20 ng/ml final conc.) was spiked into the cultures on Day 11 and Day 13. […] In parallel, compounds were incubated in medium alone to assess chemical stability of parent prodrug and metabolites. At the end of the 2 hour incubation, supernatants were collected and frozen at −80 C. Neurons in 6 well plates were washed gently 3× with HBSS and frozen at −80° C. Cell lysates were obtained by addition of 130 μl/well 10 mM Tris pH 7.4 with complete Mini protease inhibitors and scraping of wells. Plates were kept on ice during processing. Lysates were homogenized by hand briefly with a green pestle in 1.5 ml centrifuge tubes and then vortexed at high speed for 5 seconds. Lysates were centrifuged at 13,000 g, 10 minutes, 4 C and supernatants (cytosol fraction) were transferred in a new tube. A crash solution constituted of 80% acetonitrile and 20% water with bucetin, d5-Cr (internal standard) was added at 4:1 volume to volume to 50 ul of all samples for a total volume of 250 μL. Then plate was spun at 4000 rpm, 10 minutes, […] Samples were transferred to a new plate and frozen at −80 C prior to analysis by LC-MS/MS (Table 4B).

[2] = Liver microsome stability, human; type: in vitro ADME; conditions: liver microsomes, pH 7.4, Table 2C, read-out: Microsome Stability Human t1/2
Method in brief: (§1)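 Test compound incubated with mouse or human liver microsomes and NADPH in 0.1 M potassium phosphate, 1.0 mM EDTA, pH 7.4, with a 60-min no-NADPH control. Samples quenched with ACN containing internal standard at 0, 5, 10, 20, 30 and 60 min, then analysed by LC/MS.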

[3] = Chemical stability in simulated gastric fluid (SGF) without pepsin; type: physicochemical; conditions: 50 μM prodrug
Method in brief: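 Incubations used 50 μM compound at 37 °C in phosphate buffered saline, fasted simulated intestinal fluid without pancreatin, or fasted simulated gastric fluid without pepsin.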

[4] = Liver microsome stability, mouse; type: in vitro ADME; conditions: liver microsomes, pH 7.4, Table 2C, read-out: Microsome Stability Mouse t1/2
Method in brief: as §1

[5] = d3-Creatine and d3-creatinine concentration in CrT KO mice brain after IV bolus dose (FIGS. 3 and 4, Table 6); type: in vivo; conditions: CrT KO mice, 10 mg/kg IV, FIG. 4
Method: The brain concentrations of d3-creatine and d3-creatinine was measured in CrT KO mice following 10 mg/kg single dose IV bolus dose of compound 14 and 15 (FIGS. 3 and 4). As shown by FIG. 3, brain d3-creatine concentration was higher following administration of compound 15 compared to compound 14. […] Without bound to any theory, the macrocyclic compound 15 prodrug reduces d3-creatine cyclization to d3-creatinine when compared to linear compound 14 prodrug.
The concentration of d3-creatine in CrT KO mice brain were also measured for other compounds disclosed in the present application as shown in Table 6. The concentrations of d3-creatine, d3-creatinine and creatine prodrugs are measured by LC-MS/MS. The brain sample is homogenized with 4× (weight to volume) of KPI 100 mM buffer containing anti-proteases and anti-phosphatases (if needed). 50 μl of brain homogenate is then de-proteinized using 4× volume/volume of a solution containing 80% acetonitrile and 20% water with bucetin, d5-Cr (internal standard). The plate is then spun at 4000 rpm, 10 minutes, 4° C. and samples are transferred to a new plate for bioanalysis. Each analyte in each sample was quantitated against a curve in matching biomatrix using an authentic standard.

[6] = Single-dose study in CrT KO mice: creatine and creatinine in plasma and brain over 8 h (FIG. 1); type: in vivo
Method: FIG. 1 is a graph of the data from a single-dose study comparing d3-creatine and d3-creatinine levels in the plasma and brain of CrT KO mice treated with compound 15 and measured over 8 h. Cr=d3-creatine; CRN=d3-creatinine.
The plasma and brain concentrations of creatine and creatinine was measured in CrT KO mice upon treatment with compound 15 (FIG. 1). […] The ratio of [creatine]Brain.[creatine]Plasma can be an useful parameter for a successful clinical development of creatine prodrugs for treating CTD and related conditions.

[7] = Repeat dosing study, d3-creatine levels in non-human primate (NHP) brain (FIG. 2, Table 7); type: in vivo; conditions: 7 infusions q.d., all brain regions tested
Method: FIG. 2 is a graph of the data from a multi-dose study comparing d3-creatine and d3-creatinine levels in the brain of non-human primates, measured after a total of 7 infusions of compound 14 administered q.d. (once daily). Cr=d3-creatine; CRN=d3-creatinine.
Non-human primate (NHP) brains were dosed with Compound 8 (120 mg/kg) and Compound 14 (18 mg/kg) over a seven day period (i.v. infusion provide q.d.).

[8] = In vivo IV dosing in CrT KO mice: prodrug, d3-Cr and d3-Crn in brain (Table 5); conditions: IV 10 mg/kg, CrT KO mouse brain; BQL prodrug = 41.2 ng/mL
Method in brief: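 CrT KO mice received prodrugs by IV injection at 10, 15 or 25 mg/kg. Brains were collected, flash frozen and homogenized in 100 mM KPI buffer with anti-proteases. Prodrug, d3-Cr and d3-Crn were quantified by LC-MS/MS and expressed as brain concentration (macrocycles) or AUC over time (linear prodrugs).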

Prodrug concentration in the cell cytosol ([1]; Study No. 2, 100 μM)	d3-Creatine concentration in the cell cytosol ([1]; Study No. 2, 100 μM)	Prodrug concentration in the cell cytosol ([1]; Study No. 2, 500 μM)	half-life at 10 μM [2] [min]	Chemical Stability SGF, no enzyme % T0 at 2 hours at 37 °C. ([3]; Table 2C) [%]	half-life at 10 μM [4] [min]	brain concentration of d3-creatinine, compound 14 versus compound 15 [5]	creatine levels compared to creatinine (CRN) levels [6]	brain creatine (Cr) concentration compared to plasma ([6]; measured over 8 h)	d3-creatine (d3-Cr) levels in NHP brain on repeat administration (in words) [7]	Chemical Stability SGF, no enzyme % T0 at 2 hours at 37 °C. ([3]; Table 2A) [%]	AUClast prodrug in the brain [8]	SMILES
BLOQ	BLOQ	BLOQ	< 5	97	< 5	not significantly different	higher than creatinine (CRN) levels	higher than the concentration in plasma				Cl.[2H]C([2H])([2H])N1CC(=O)OCCCCCCCCCCC(=O)NC1=N [Compound 15, 5-imino-4-trideuteriomethyl-1-oxa-4,6-diazacycloheptadecane-2,7-dione Hydrochloride]
						not significantly different			dramatically increases	80	BQL	Cl.[2H]C([2H])([2H])N(CC(=O)OCCCCCCC)C(=N)NC(=O)CCCCCC [Compound 14]
